Test results published in ChEMBL document CHEMBL5724914, “Linking interpersonal differences in gut microbiota composition and drug biotransformation activity” (2024).

Legend:
[1] = (§1) The drug is tested on Z-030 corresponding to mouse gut metagenome with ENA study accession number: PRJEB37062 and ENA sample accession number: ERS12561829 for biotransformation under anaerobic condition. The drug concentrations were measured over 9 timepoints collected between 0 and 24 hours of incubation by liquid-chromatography-coupled mass spectrometry (LC–MS); settings: 2 µM
[2] = as §1, with “Z-021” for “Z-030”, “to” for “to mouse gut”, “ERS12561820” for “ERS12561829”; settings: 2 µM
[3] = as §1, with “Z-019” for “Z-030”, “rat” for “mouse”, “ERS12561818” for “ERS12561829”; settings: 2 µM
[4] = as §1, with “Z-012” for “Z-030”, “to” for “to mouse gut”, “ERS12561812” for “ERS12561829”; settings: 2 µM
[5] = as §1, with “Z-007” for “Z-030”, “rat” for “mouse”, “ERS12561807” for “ERS12561829”; settings: 2 µM
[6] = as §1, with “Z-004” for “Z-030”, “to” for “to mouse gut”, “ERS12561804” for “ERS12561829”; settings: 2 µM
[7] = as §1, with “Z-001” for “Z-030”, “ERS12561801” for “ERS12561829”; settings: 2 µM
[8] = as §1, with “WLS-370” for “Z-030”, “human” for “mouse”, “ERS12561793” for “ERS12561829”; settings: 2 µM
[9] = as §1, with “WLS-240” for “Z-030”, “human” for “mouse”, “ERS12561773” for “ERS12561829”; settings: 2 µM
[10] = as §1, with “WLS-220” for “Z-030”, “human” for “mouse”, “ERS12561769” for “ERS12561829”; settings: 2 µM
[11] = as §1, with “WLS-090” for “Z-030”, “human” for “mouse”, “ERS12561753” for “ERS12561829”; settings: 2 µM
[12] = as §1, with “WLS-069” for “Z-030”, “human” for “mouse”, “ERS12561748” for “ERS12561829”; settings: 2 µM
[13] = as §1, with “WLS-038” for “Z-030”, “human” for “mouse”, “ERS12561745” for “ERS12561829”; settings: 2 µM
[14] = human gut metagenome, 24 h, 2 µM
[15] = human gut metagenome, 24 h, 2 µM; remark: listed apart in the source
[16] = human gut metagenome, 24 h, 2 µM; remark: listed apart in the source
[17] = human gut metagenome, 24 h, 2 µM; remark: listed apart in the source
[18] = human gut metagenome, 24 h, 2 µM; remark: listed apart in the source
[19] = human gut metagenome, 24 h, 2 µM; remark: listed apart in the source
[20] = human gut metagenome, 24 h, 2 µM; remark: listed apart in the source
Also: call rule not given here.

Row | Bacterial Biotransformation [1] | Bacterial Biotransformation [2] | Bacterial Biotransformation [3] | Bacterial Biotransformation [4] | Bacterial Biotransformation [5] | Bacterial Biotransformation [6] | Bacterial Biotransformation [7] | Bacterial Biotransformation [8] | Bacterial Biotransformation [9] | Bacterial Biotransformation [10] | Bacterial Biotransformation [11] | Bacterial Biotransformation [12] | Bacterial Biotransformation [13] | Bacterial Biotransformation [14] | Bacterial Biotransformation [15] | Bacterial Biotransformation [16] | Bacterial Biotransformation [17] | Bacterial Biotransformation [18] | Bacterial Biotransformation [19] | Bacterial Biotransformation [20] | Compound
1 | Compound NOT metabolized | Compound NOT metabolized | Compound NOT metabolized | Compound NOT metabolized | Compound NOT metabolized | Compound NOT metabolized | Compound NOT metabolized | Compound NOT metabolized | Compound NOT metabolized | Compound NOT metabolized | Compound NOT metabolized | Compound NOT metabolized | Compound NOT metabolized | Compound NOT metabolized | Compound NOT metabolized | Compound NOT metabolized | Compound NOT metabolized | Compound NOT metabolized | Compound NOT metabolized | Compound NOT metabolized | N=C(N)NC(=O)Cc1c(Cl)cccc1Cl [GUANFACINE]
2 | Compound NOT metabolized | Compound NOT metabolized | Compound NOT metabolized | Compound NOT metabolized | Compound NOT metabolized | Compound NOT metabolized | Compound NOT metabolized | Compound NOT metabolized | Compound NOT metabolized | Compound NOT metabolized | Compound NOT metabolized | Compound NOT metabolized | Compound NOT metabolized | Compound NOT metabolized | Compound NOT metabolized | Compound NOT metabolized | Compound NOT metabolized | Compound NOT metabolized | Compound NOT metabolized | Compound metabolized | Nc1nc(N)nc(-c2cc(Cl)ccc2Cl)n1.O=C(O)/C=C\C(=O)O [IRSOGLADINE MALEATE]
3 | Compound NOT metabolized | Compound NOT metabolized | Compound NOT metabolized | Compound NOT metabolized | Compound NOT metabolized | Compound NOT metabolized | Compound NOT metabolized | Compound metabolized | Compound metabolized | Compound metabolized | Compound metabolized | Compound NOT metabolized | Compound NOT metabolized | Compound metabolized | Compound NOT metabolized | Compound metabolized | Compound NOT metabolized | Compound NOT metabolized | Compound metabolized | Compound metabolized | CN1CCC(=C2c3ccccc3CC(=O)c3sccc32)CC1.O=C(O)/C=C/C(=O)O [KETOTIFEN FUMARATE]
4 | Compound metabolized | Compound NOT metabolized | Compound NOT metabolized | Compound NOT metabolized | Compound NOT metabolized | Compound NOT metabolized | Compound NOT metabolized | Compound NOT metabolized | Compound metabolized | Compound metabolized | Compound metabolized | Compound metabolized | Compound metabolized | Compound metabolized | Compound NOT metabolized | Compound metabolized | Compound metabolized | Compound metabolized | Compound metabolized | Compound metabolized | CC[C@H](C)C(=O)O[C@H]1CCC=C2C=C[C@H](C)[C@H](CC[C@@H]3C[C@@H](O)CC(=O)O3)[C@H]21 [MEVASTATIN]
5 | Compound NOT metabolized | Compound NOT metabolized | Compound NOT metabolized | Compound NOT metabolized | Compound NOT metabolized | Compound NOT metabolized | Compound NOT metabolized | Compound NOT metabolized | Compound metabolized | Compound metabolized | Compound metabolized | Compound metabolized | Compound NOT metabolized | Compound metabolized | Compound metabolized | Compound metabolized | Compound metabolized | Compound NOT metabolized | Compound metabolized | Compound metabolized | COc1ccc2cc([C@H](C)C(=O)O)ccc2c1 [NAPROXEN]
6 | Compound metabolized | Compound NOT metabolized | Compound NOT metabolized | Compound NOT metabolized | Compound NOT metabolized | Compound NOT metabolized | Compound NOT metabolized | Compound NOT metabolized | Compound metabolized | Compound metabolized | Compound metabolized | Compound metabolized | Compound metabolized | Compound metabolized | Compound NOT metabolized | Compound metabolized | Compound NOT metabolized | Compound NOT metabolized | Compound NOT metabolized | Compound metabolized | C#C[C@]1(OC(C)=O)CC[C@H]2[C@@H]3CCC4=C/C(=N/O)CC[C@@H]4[C@H]3CC[C@@]21CC [NORGESTIMATE]

Row | Compound | Bacterial Biotransformation [1] | Bacterial Biotransformation [2] | Bacterial Biotransformation [3] | Bacterial Biotransformation [4] | Bacterial Biotransformation [5] | Bacterial Biotransformation [6] | Bacterial Biotransformation [7] | Bacterial Biotransformation [8] | Bacterial Biotransformation [9] | Bacterial Biotransformation [10] | Bacterial Biotransformation [11] | Bacterial Biotransformation [12] | Bacterial Biotransformation [13] | Bacterial Biotransformation [14] | Bacterial Biotransformation [15] | Bacterial Biotransformation [16] | Bacterial Biotransformation [17] | Bacterial Biotransformation [18] | Bacterial Biotransformation [19] | Bacterial Biotransformation [20]
7 | CC(C)c1c(CN(C)C(C)Cc2ccccc2)n(C)n(-c2ccccc2)c1=O (stereo not given) [FAMPROFAZONE] | Compound NOT metabolized | Compound metabolized | Compound NOT metabolized | Compound metabolized | Compound metabolized | Compound metabolized | Compound metabolized | Compound metabolized | Compound metabolized | Compound metabolized | Compound metabolized | Compound metabolized | Compound metabolized | Compound metabolized | Compound metabolized | Compound metabolized | Compound NOT metabolized | Compound metabolized | Compound metabolized | Compound metabolized
